Measurements: ChEMBL document CHEMBL4359821, “Identify liver X receptor β modulator building blocks by developing a fluorescence polarization-based competition assay” (Eur J Med Chem, 2019)
pEC50, pKd, pKi: −log10 of the molar value.

Tests used:
[1] = target: T1, Oxysterols receptor LXR-beta (Homo sapiens, UniProt P55055); assay: Binding affinity to recombinant human LXRbeta-LBD expressed in Escherichia coli BL21 (DE3) assessed as inhibitory constant incubated for 30 mins by fluorescence polarization binding assay
T1 sequence (P55055 whole entry, the tested form may be a part): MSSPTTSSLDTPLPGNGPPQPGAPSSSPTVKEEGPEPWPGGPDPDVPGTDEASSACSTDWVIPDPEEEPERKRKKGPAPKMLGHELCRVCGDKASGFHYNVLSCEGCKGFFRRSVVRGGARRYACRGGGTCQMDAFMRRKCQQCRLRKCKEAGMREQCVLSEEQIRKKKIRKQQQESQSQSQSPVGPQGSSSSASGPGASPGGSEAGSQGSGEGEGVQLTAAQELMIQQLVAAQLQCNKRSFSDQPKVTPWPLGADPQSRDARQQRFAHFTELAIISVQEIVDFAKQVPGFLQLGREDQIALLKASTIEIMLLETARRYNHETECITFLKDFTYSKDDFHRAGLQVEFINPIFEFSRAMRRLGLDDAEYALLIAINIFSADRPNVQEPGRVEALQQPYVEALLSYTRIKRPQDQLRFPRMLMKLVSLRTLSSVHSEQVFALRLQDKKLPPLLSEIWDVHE

[2] = target: T1, Oxysterols receptor LXR-beta; assay: Agonist activity at recombinant human LXRbeta-LBD expressed in Escherichia coli BL21 (DE3) assessed as peptide D22 recruitment fluorescence polarization binding assay
[3] = target: T1, Oxysterols receptor LXR-beta; assay: Binding affinity to recombinant human LXRbeta-LBD expressed in Escherichia coli BL21 (DE3) assessed as dissociation constant incubated for 30 mins by fluorescence polarization binding assay

| Structure (SMILES) | pKi [1] | pEC50 [2] | pKd [3] |
| --- | --- | --- | --- |
| Oc1cccc(Cl)c1 | 3.74 | 3.28 | – |
| COC(=O)c1ccc2cc[nH]c2c1 | 3.52 | – | – |
| O=C1Nc2ccc(Br)cc2CO1 | < 3.30 | – | – |
| COc1ccc(OC)c(Cl)c1 | 3.32 | 2.99 | – |
| CC(C)(C)OC(=O)N1Cc2cn[nH]c2C1 | 3.65 | – | – |
| CC(C)[C@@H]1CN(c2ccc(CO)c(S(C)(=O)=O)c2)CCN1c1ncc(COC(=O)CCCCCNC(=S)Nc2ccc3c(c2)C(=O)OC32c3ccc(O)cc3Oc3cc(O)ccc32)c(C(F)(F)F)n1 | – | – | 7.31 |
| Oc1ccc(Cl)cc1 [PARACHLOROPHENOL] | 3.77 | 3.29 | – |

Further lines, results first:

| pKi [1] | pEC50 [2] | pKd [3] | Structure (SMILES) |
| --- | --- | --- | --- |
| 4.17 | – | – | Oc1ccc(Sc2ccc(O)cc2)cc1 |
| 6.45 | – | – | CCOC(=O)c1ccc(CN(Cc2ccc(-c3cccc(S(C)(=O)=O)c3)cc2)S(=O)(=O)c2c(C)cc(C)cc2C)o1 |
| 3.85 | 4.72 | – | CCOC(=O)c1cn2nc[nH]c(=O)c2c1C(C)C |
| 3.68 | – | – | Brc1nn(C2CCCCO2)c2ncccc12 (stereo unspecified) |
| 3.82 | – | – | CC(=O)c1c(C)ccc2ccccc12 |
| 8.66 | 6.54 | – | O=C(O)Cc1cccc(OCCCN(Cc2cccc(C(F)(F)F)c2Cl)CC(c2ccccc2)c2ccccc2)c1 |
| 4.18 | – | – | CCCCOC(=O)c1ccc(O)cc1 [BUTYLPARABEN] |
| 7.85 | – | – | Fc1ccc(-c2c3cccc(C(F)(F)F)c3nn2Cc2ccc(F)cc2Cl)cc1 [LXR-623] |
| 4.35 | – | – | N#CC[C@H](C1CCCC1)n1cc(-c2ncnc3[nH]ccc23)cn1 [RUXOLITINIB] |
